The results in this text go back to US11633459B2, “GIP derivatives and uses thereof” (priority 2018, dated 2023).

The nature of data set [1]: in vivo. The conditions noted are these: female, Göttingen, minipig, iv, 5 nmol/kg.
Description: Pharmacokinetic Study in Minipigs
The purpose of this study is to determine the half-life in vivo of the derivatives of the present invention after i.v. administration to minipigs, i.e. the prolongation of their time in the body and thereby their time of action. This is done in a pharmacokinetic (PK) study, where the terminal half-life of the derivative in question is determined. By terminal half-life is generally meant the period of time it takes to halve a certain plasma concentration, measured after the initial distribution phase.
Female Göttingen minipigs were obtained from Ellegaard Göttingen Minipigs (Dalmose, Denmark) approximately 7-14 months of age and weighing from approximately 16-35 kg were used in the studies. The minipigs were housed individually and fed restrictedly once daily with SDS minipig diet (Special Diets Services, Essex, UK).
After at 3 weeks of acclimatisation two permanent central venous catheters were implanted in vena cava caudalis in each animal. The animals were allowed 1 week recovery after the surgery, and were then used for repeated pharmacokinetic studies with a suitable wash-out period between successive derivative dosing.
Blood samples (for example 0.8 ml) were collected in EDTA buffer (8 mM) and then centrifuged at 4° C. and 1942G for 10 minutes.
Individual plasma concentration-time profiles were analysed by a non-compartmental model in Phoenix WinNonLin ver. […] (Pharsight Inc., Mountain View, Calif., USA), and the resulting terminal half-lives (harmonic mean) determined.
The target in data set [2] is T1, human GIP receptor (Homo sapiens, UniProt P48546).
T1 construct: expressed in transfected cells; host or cells: BHK cells (parent line BHKTS13), clone BHK CRE luc2P hGIPR clone #5
T1 sequence (P48546 22-466): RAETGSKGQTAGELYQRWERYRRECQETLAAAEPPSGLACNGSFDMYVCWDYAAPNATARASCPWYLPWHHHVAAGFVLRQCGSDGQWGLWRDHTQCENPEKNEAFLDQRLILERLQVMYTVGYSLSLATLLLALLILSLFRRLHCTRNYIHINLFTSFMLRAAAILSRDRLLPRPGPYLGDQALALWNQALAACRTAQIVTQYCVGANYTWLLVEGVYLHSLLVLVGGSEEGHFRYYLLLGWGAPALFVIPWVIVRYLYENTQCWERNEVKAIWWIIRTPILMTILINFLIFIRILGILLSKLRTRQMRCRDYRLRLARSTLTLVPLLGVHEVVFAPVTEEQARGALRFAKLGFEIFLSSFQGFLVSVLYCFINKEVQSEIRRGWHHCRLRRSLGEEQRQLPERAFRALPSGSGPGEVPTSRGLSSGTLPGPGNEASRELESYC
Put plainly: In vitro potency, CRE luciferase reporter gene assay, whole BHK cells expressing human GIP receptor. In kind it is cell-based. The conditions noted are these: 0.2% HSA. The protocol: In Vitro Potency (CRE Luciferase; Whole Cells)
The in vitro potency is the measure of human GIP, GLP-1 or glucagon receptor activation, respectively, in a whole cell assay.
In vitro potency was determined by measuring the response of the human GIP, GLP-1 or glucagon receptor in a reporter gene assay in individual cell lines. […] When the respective receptor is activated it results in the production of cAMP, which in turn results in the luciferase protein being expressed. When assay incubation is completed the luciferase substrate (luciferin) is added and the enzyme converts luciferin to oxyluciferin to produce bioluminescence. The luminescence is measured as the readout for the assay.
The cells were derived from a clone containing the CRE luciferase element and were established by further transfection with the respective receptor to obtain the current clone.
The cells were cultured at 5% CO2 in Cell Culture Medium. They were aliquoted and stored in liquid nitrogen. The cells were kept in passage and were seeded out the day before each assay.
The Assay Buffer consisted of 1% ovalbumin and 0.1% Pluronic F-68 in Assay Medium with the addition of human serum albumin at twice the indicated concentrations.
1) Cells were plated at 5000 cells/well and incubated overnight.
2) Cells were washed three times in PBS.
3) Assay Medium (50 μl aliquot) with or without serum albumin was added to each well in the assay plate.
4) Stocks of the test compounds and reference compounds were diluted to a concentration of 0.2 μM in Assay Buffer. […] 8) The cells were washed three times with PBS plus some liquid in each well. 9) A 100 μl aliquot of steadylite plus reagent was added to each well of the assay plate (reagent was light sensitive). 10) Each assay plate was covered with aluminum foil to protect it from light and shaken for 30 min at room temperature. 11) Each assay plate was read in a microtiter plate reader. Calculations and Results
The data from the microtiter plate reader was transferred to GraphPad Prism software. The software performs a non-linear regression (log(agonist) vs response).
A minimum of two replicates was measured for each sample. The reported values are averages of the replicates.
In general terms: A reporter such as luciferase makes a cellular process visible.

A word on the half-life: it is the time in which the quantity being followed falls by half. For orientation: EC50 means the midpoint of the concentration-response curve. A high value points to lower potency in that assay.

With `CCCC[C@H](NC(=O)[C@H](C)NC(=O)[C@@H](NC(=O)[C@H](CO)NC(=O)[C@H](Cc1ccc(O)cc1)NC(=O)[C@H](CC(=O)O)NC(=O)[C@H](CO)NC(=O)[C@@H](NC(=O)[C@H](Cc1ccccc1)NC(=O)[C@@H](NC(=O)CNC(=O)[C@H](CCC(=O)O)NC(=O)C(C)(C)NC(=O)[C@@H](Cc1ccc(O)cc1)NC(C)=O)[C@@H](C)O)[C@@H](C)CC)[C@@H](C)CC)C(=O)N[C@@H](CC(=O)O)C(=O)N[C@@H](CCCCN)C(=O)N[C@H](C(=O)N[C@@H](CCCNC(=N)N)C(=O)N[C@@H](CCC(N)=O)C(=O)N[C@@H](CCC(N)=O)C(=O)N[C@@H](CC(=O)O)C(=O)N[C@@H](Cc1ccccc1)C(=O)N[C@H](C(=O)N[C@@H](CCCCNC(=O)CC[C@H](NC(=O)CC[C@H](NC(=O)CC[C@H](NC(=O)CCCCCCCCCCCCCCCCC(=O)O)C(=O)O)C(=O)O)C(=O)O)C(=O)N[C@@H](Cc1c[nH]c2ccccc12)C(=O)N[C@@H](CC(C)C)C(=O)N[C@@H](CC(C)C)C(=O)N[C@@H](C)C(=O)N[C@@H](CCC(N)=O)C(=O)N[C@@H](CCCCN)C(=O)NCC(=O)O)C(C)C)[C@@H](C)CC` [Compound 5, N{1}-acetyl, N{Epsilon-24}-[(4S)-4-carboxy-4-[[(4S)-4-carboxy-4-[[(4S)-4-carboxy-4-(17-carboxyheptadecanoylamino)butanoyl]amino]butanoyl]amino]butanoyl]-[D-Tyr1,Aib2,Nle14,Arg18,Lys24]-hGIP(1-31)], the half-life in data set [1] was 79 h. In data set [2], the midpoint of the response, the EC50, lay at 0.0209 nM.
